Source: patent US20250302748A1, “METHOD FOR ENHANCING THE EFFICIENCY OF DRUG LOADING INTO EXTRACELLULAR VESICLES AND MEDICINAL PRODUCTS THEREOF” (Shine-On BioMedical CO., LTD., priority 2024, published 2025)
Counter-ions that a name gives are not always drawn.

How the values were obtained:
[1] = test system: breast cancer cells (MDA-MB-231); experiment: Orthotopic breast cancer animal model, IVIS luminescence; type: in vivo, mice; settings: day 49, two weeks after final administration; tail vein injections for six weeks; luminescence converted into tumor volume
Text: Referring to FIG. 9C, a breast cancer animal model was applied to evaluate the efficacy and biocompatibility of exosome 10 loaded with the target drug. In this experiment, the breast cancer animal model was constructed by injecting the breast cancer cells (MDA-MB-231) orthotopically into the mammary fat pad of the mice and then culturing the breast cancer cells into tumor. The mice were divided into drug treatment groups 1 to 3 and control group 1. The breast cancer animal model in drug treatment groups 1 to 3 were received the target drug directly (Dox-HCl), the liposome injection loaded with the target drug Dox-HCl (Dox@Lipo), and the exosomes 10 loaded with the target drug Dox-HCl (Dox@EXO) respectively; the control group 1 is the group treated with a placebo (PBS) (Ctrl).
Each group (groups 1-3 and control group 1) of the breast cancer animal model described above was received tail vein injections continuously for six weeks administration following the injection of breast cancer cells (MDA-MB-231). Tumor development was monitored and imaged using an in vivo imaging system (IVIS Imaging System), which measured tumor progression based on a luminescence signal of the tumor.

[2] = Safety study with serum biochemical analysis after third weekly administration; type: in vivo, Immunocompetent mice
Text: Furthermore, to confirm that exosome 10 retains its biocompatibility after loading the target drug and is safe for in vivo use, please refer to Table 5, an animal model is applied to evaluate the safety. Immunocompetent mice were divided into control group (Control), vehicle control group (Vehicle control), drug treatment group (Dox), and exosome treatment groups 1-3 (Dox@EXO 1-3). The groups above were weekly administered Lactated Ringer's solution, the exosomes 10, the target drug (Doxorubicin, Dox-HCl), and the exosomes 10 loaded with the target drug Dox-HCl (Dox@EXO) in concentrations of 2 mg/kg, 6 mg/kg, and 12 mg/kg respectively. After receiving the third administration, blood samples were collected for serum biochemical analysis to monitor organ function.

[3] = 12 mg/kg weekly, after third administration, serum

COc1cccc2c1C(=O)c1c(O)c3c(c(O)c1C2=O)C[C@@](O)(C(=O)CO)C[C@@H]3O[C@H]1C[C@H](N)[C@H](O)[C@H](C)O1 [Dox-HCl, Doxorubicin hydrochloride]
Inhibition rate of tumor growth [1]: 73.8% | ALB (Albumin) [2, 3]: 2.68 g/dL | ALP (Alkaline Phosphatase) [2, 3]: 182.52 U/L | ALT [2, 3]: 29.52 U/L | AMY (Amylase) [2, 3]: 3424.8 U/L | AST [2, 3]: 76.88 U/L | CK (Creatine kinase) [2, 3]: 236.06 U/L | LDH (Lactate Dehydrogenase) [2, 3]: 648.28 U/L | Difference in serum biochemical parameters versus control group (One-way ANOVA) ([2]; Dox 12 mg/kg, Dox@EXO 2, 6 and 12 mg/kg): significant differences in liver function markers such as albumin (ALB) and alkaline phosphatase (ALP)
